Laboratory results published in ChEMBL document CHEMBL1201862, “PubChem BioAssay data set” (2004).
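How tested: cells in 96-well plates exposed to compound for 48 hours at five concentrations. Abbreviation: GI50, concentration required for 50% inhibition of growth.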 Activity calls are given as the source filed them. Rule as the data show it: active = GI50 up to about 1.1 µM and inactive = higher.

Tests used:
Test in all cases: NCI-60 cell line screen, 48 h
[1] = test system: 786-0
[2] = test system: A498
[3] = test system: ACHN
[4] = test system: COLO 205
[5] = test system: HCT-116
[6] = test system: IGROV-1
[7] = test system: K562
[8] = test system: KM-20L2
[9] = test system: M14
[10] = test system: OVCAR-8
[11] = test system: RPMI-8226
[12] = test system: SR
[13] = test system: TK-10
[14] = test system: UACC-257
[15] = test system: UACC-62
[16] = test system: BT-549
[17] = test system: MDA-MB-231
[18] = test system: MDA-MB-435
[19] = test system: NCI/ADR-RES
[20] = test system: PC-3

SMILES	GI50 [1]	GI50 [2]	GI50 [3]	GI50 [4]	GI50 [5]	GI50 [6]	GI50 [7]	GI50 [8]	GI50 [9]	GI50 [10]	GI50 [11]	GI50 [12]	GI50 [13]	GI50 [14]	GI50 [15]	GI50 [16]	GI50 [17]	GI50 [18]	GI50 [19]	GI50 [20]
O=C(Nc1cccc(C(F)(F)F)c1)C(=O)C1NC(=S)NC1=O (stereo not drawn)	> 100 µM (inactive)	> 100 µM (inactive)	> 100 µM (inactive)	39 µM (inactive)	82.4 µM (inactive)	> 100 µM (inactive)	71.1 µM (inactive)	> 100 µM (inactive)	> 100 µM (inactive)	> 100 µM (inactive)	> 100 µM (inactive)	> 100 µM (inactive)	> 100 µM (inactive)	31.6 µM (inactive)	> 100 µM (inactive)					
Cc1nc(N2N=C(c3ccc(Cl)cc3)CCC2=O)sc1[N+](=O)[O-]	> 100 µM (inactive)		> 100 µM (inactive)	> 100 µM (inactive)	> 100 µM (inactive)	> 100 µM (inactive)	> 100 µM (inactive)	> 100 µM (inactive)	> 100 µM (inactive)	> 100 µM (inactive)	> 100 µM (inactive)	> 100 µM (inactive)	> 100 µM (inactive)	> 100 µM (inactive)	> 100 µM (inactive)					
O=c1[nH]c(-c2ccccc2)nc2ccc(Cl)cc12	60.8 µM (inactive)		73.1 µM (inactive)	> 100 µM (inactive)	> 100 µM (inactive)		26.9 µM (inactive)	29.2 µM (inactive)		43.8 µM (inactive)	33.2 µM (inactive)	85.5 µM (inactive)	35.2 µM (inactive)	42.4 µM (inactive)						
O=C1C(O)=C(CC=C(Cl)Cl)C(=O)c2ccccc21	6.17 µM (inactive)	30 µM (inactive)	12.3 µM (inactive)	19.5 µM (inactive)	1.36 µM (inactive)	6.5 µM (inactive)	1.82 µM (inactive)	9.42 µM (inactive)	12.6 µM (inactive)	5.48 µM (inactive)	2.28 µM (inactive)	1.08 µM (active)	38.9 µM (inactive)	15.1 µM (inactive)	4.91 µM (inactive)	18.3 µM (inactive)	15.1 µM (inactive)	11 µM (inactive)	19.1 µM (inactive)	10.9 µM (inactive)
O=C(NNC(=O)/C(=C/c1cccc([N+](=O)[O-])c1)NC(=O)c1ccccc1)Nc1ccc(Cl)cc1	14 µM (inactive)	10.6 µM (inactive)	14 µM (inactive)	13.4 µM (inactive)	13.4 µM (inactive)	11.9 µM (inactive)	5.66 µM (inactive)	17.1 µM (inactive)	12.8 µM (inactive)	14.2 µM (inactive)	9.55 µM (inactive)	7.74 µM (inactive)	15.5 µM (inactive)	17.6 µM (inactive)	14.5 µM (inactive)					
CCN1C[C@]2(C)CC[C@H](O)C34C1C(C[C@@H]32)[C@@]1(O)CC[C@H]2C[C@@H]4[C@@H]1[C@H]2O	> 100 µM (inactive)		> 100 µM (inactive)	> 100 µM (inactive)	> 100 µM (inactive)	> 100 µM (inactive)		> 100 µM (inactive)	> 100 µM (inactive)	> 100 µM (inactive)	> 100 µM (inactive)	> 100 µM (inactive)	> 100 µM (inactive)	> 100 µM (inactive)	> 100 µM (inactive)					
C[C@]12C=CC(=O)C=C1[C@@H](F)C[C@H]1[C@@H]3CC[C@](O)(C(=O)CO)[C@@]3(C)C[C@H](O)[C@@]12F	> 100 µM (inactive)	> 100 µM (inactive)	> 100 µM (inactive)	> 100 µM (inactive)	> 100 µM (inactive)	> 100 µM (inactive)	> 100 µM (inactive)	> 100 µM (inactive)	> 100 µM (inactive)	> 100 µM (inactive)	> 87.5 µM (inactive)	> 100 µM (inactive)	> 100 µM (inactive)	> 100 µM (inactive)	> 100 µM (inactive)	> 100 µM (inactive)	> 100 µM (inactive)	> 100 µM (inactive)	> 100 µM (inactive)	> 100 µM (inactive)
O=C(OCc1ccccc1C1CSCSC1)c1cc(C(=O)OCc2ccccc2C2CSCSC2)c(C(=O)OCc2ccccc2C2CSCSC2)cc1C(=O)OCc1ccccc1C1CSCSC1	65 µM (inactive)	> 100 µM (inactive)	> 100 µM (inactive)	> 100 µM (inactive)	> 100 µM (inactive)	> 100 µM (inactive)	> 100 µM (inactive)	> 100 µM (inactive)	> 100 µM (inactive)	> 100 µM (inactive)	> 100 µM (inactive)	> 100 µM (inactive)	> 100 µM (inactive)	> 100 µM (inactive)	> 100 µM (inactive)					
O=C(CSc1nnc(-c2ccc(/N=C\c3ccc(Cl)cc3)cc2)o1)Nc1ccc(Cl)cc1Cl	19.5 µM (inactive)	> 100 µM (inactive)	45.4 µM (inactive)	30.7 µM (inactive)	22 µM (inactive)	32.8 µM (inactive)	38 µM (inactive)	37.2 µM (inactive)	16.4 µM (inactive)	28.5 µM (inactive)	32.4 µM (inactive)		> 100 µM (inactive)	25 µM (inactive)	28.7 µM (inactive)					
N#Cc1ccccc1/C=N/O	> 76.7 µM (inactive)	> 100 µM (inactive)	> 60.3 µM (inactive)	> 49.7 µM (inactive)	> 44.2 µM (inactive)	> 100 µM (inactive)	> 44.7 µM (inactive)	> 100 µM (inactive)	> 100 µM (inactive)	> 100 µM (inactive)	> 42.2 µM (inactive)	> 100 µM (inactive)	> 100 µM (inactive)	> 100 µM (inactive)	> 100 µM (inactive)					
COC(=O)C1=C(C[S+]([O-])c2ccc([N+](=O)[O-])cc2[N+](=O)[O-])ON(C)C1c1ccccc1 (stereo not drawn)	67.1 µM (inactive)	> 61.8 µM (inactive)	67.6 µM (inactive)	24.2 µM (inactive)	34 µM (inactive)	> 84.5 µM (inactive)	12.1 µM (inactive)	27.8 µM (inactive)	96.6 µM (inactive)	63.7 µM (inactive)	13.4 µM (inactive)		> 48.9 µM (inactive)	50.6 µM (inactive)	24.2 µM (inactive)					
C/C(=N\Nc1ccccc1)c1sc(-c2nc(C)c(/C(C)=N/Nc3ccccc3)s2)nc1C	18.8 µM (inactive)	> 46.1 µM (inactive)	10.4 µM (inactive)	8.24 µM (inactive)	33.7 µM (inactive)	14.1 µM (inactive)	7.36 µM (inactive)	6.46 µM (inactive)	7.71 µM (inactive)	33.4 µM (inactive)	12.6 µM (inactive)	25.6 µM (inactive)	80.9 µM (inactive)	35.1 µM (inactive)	4.07 µM (inactive)					
Fc1ccccc1C1CC(c2ccc3ccccc3c2)=Nc2ccccc2S1 (stereo not drawn)	> 100 µM (inactive)	> 100 µM (inactive)	> 100 µM (inactive)	> 100 µM (inactive)	> 100 µM (inactive)	> 100 µM (inactive)	> 10 µM (inactive)	> 100 µM (inactive)	> 100 µM (inactive)	> 100 µM (inactive)		> 100 µM (inactive)	> 100 µM (inactive)	> 100 µM (inactive)	> 100 µM (inactive)					
CCCCCCCCCCCCCCCC(=O)OCC1OC(n2cc(F)c(=O)[nH]c2=O)C(N)C(O)C1O (stereo not drawn)	19.1 µM (inactive)	25.9 µM (inactive)	18.8 µM (inactive)	18.5 µM (inactive)	20 µM (inactive)	> 10 µM (inactive)	16.5 µM (inactive)	17.2 µM (inactive)	17.8 µM (inactive)	20.5 µM (inactive)	23.3 µM (inactive)		21.9 µM (inactive)	20.2 µM (inactive)	16.2 µM (inactive)					
CC(O)C(C(=O)O)N(CC1(O)OCC(O)C(O)C1O)N=O (stereo not drawn)	> 100 µM (inactive)	> 100 µM (inactive)	> 100 µM (inactive)	> 100 µM (inactive)	> 100 µM (inactive)	> 100 µM (inactive)	> 100 µM (inactive)	> 100 µM (inactive)	> 100 µM (inactive)	> 100 µM (inactive)	> 100 µM (inactive)		> 100 µM (inactive)	> 100 µM (inactive)	> 100 µM (inactive)					
